Test results published in patent US8034314B2, “Photoreactive compound specifically binding to calcium binding proteins” (priority 2004, dated 2011).

Tests used:
[1] = tested on: mitochondrial uniporter (Ca2+ uptake in mitochondria); assay: Ca2+ uptake/accumulation in isolated mitochondria; assay type: biochemical, rat; conditions: no UV; mean ± SEM of 3 to 5 experiments
Experimental: (§1) Sarcoplasmic reticulum (SR) membranes were prepared from rabbit fast twitch skeletal muscle as described by Saito [Saito et al.: J. Cell Biol. 99 (1984) 875-85]. Mitochondria were isolated from rat liver as described by us previously [Gincel D. et al.: Biochem J. 358 (2001) 147-55]. VDAC was purified by a method developed in our laboratory, using columns of hydroxyapatite and reactive red agarose [Gincel D. et al.: J. Bioenerget. Biomembr. 32 (2000) 571-83].
Ca^2+-accumulation in freshly prepared mitochondria (0.5 mg/ml) was assayed for 1 to 20 minutes at 30° C. in the presence of 225 mM mannitol, 75 mM sucrose, 120 μM CaCl2 (containing 3×10^4 cpm/nmol ^45Ca^2+), 5 mM HEPES/KOH pH 7.0, and 5 mM succinate with 0.1 mM Pi, or 4 mM MgCl2 with 3 mM ATP. The Ca^2+-uptake was terminated by rapid Millipore filtration, followed by a wash with 5 ml of 0.15 M KCl. The Ca^2+-accumulation in SR was determined as described previously [Shoshan-Barmatz V. & Shaineberg A.: Biochim. Biophys. Acta 1065 (1991) 82-8]. Electron transport from succinate to cytochrome c was described in above cited article [Gincel D. et al.: J. Bioenerget. Biomembr. 32 (2000) 571-83].
The effect of AzRu on mitochondrial process of electron transport from the donor succinate to the acceptor cytochrome c was characterized as described above. Although said electron transfer involves several dozens electron transfer carriers, this reaction was not affected by azido-ruthenium of this invention.
(§2) The hexavalent RuR and the trivalent Ru360 have been employed in various studies as inhibitors of Ca^2+-dependent reactions. As shown here, even with no photoactivation, AzRu, in contrast to RuR and Ru360, was effective in inhibiting the SR Ca^2+-pump (Table 3). […] This may open the way to inhibit other Ca^2+-dependent activities that are not sensitive to RuR, such as the plasma membrane Ca^2+-ATPase. […] RuR was employed to improve mitochondrial production in ischemic reperfused pig myocardium, was employed in the nervous system to follow neuronal death progress and can act as an anti-oxidant in certain conditions. Considering the potent activity of AzRu in RuR-insensitive reactions (see Table 3), its applications in various biological studies should be explored. Ca^2+ accumulation in SR and mitochondria was assayed as described above in the absence and presence of different concentrations of RuR (0.05-100 μM), Ru360 (0.01-100 μM) or AzRu (0.1-100 μM). The concentration required for 50% inhibition (IC50) was derived from the plot of Ca^2+ accumulation activity or ryanodine binding as a function of the reagent concentration. The results are the mean±SEM of 3 to 5 experiments (Table 3).

[2] = biological target: T1, ryanodine receptor (RyR) / Ca2+-release channel (Oryctolagus cuniculus, UniProt P11716); assay: [3H]ryanodine binding to SR membranes; set-up: species or system rabbit; conditions: no UV; mean ± SEM of 3 to 5 experiments
T1 construct: from tissue; host or cells: rabbit fast twitch skeletal muscle SR membranes
Experimental: as §1
For the determination of [^3H]ryanodine binding, SR membranes were incubated for 20-60 min at 37° C. in a standard binding solution containing 1M NaCl, 20 mM MOPS (pH 7.4), 50 μM free Ca^2+ and 20 nM [^3H]ryanodine. Unbound ryanodine was separated from protein-bound ryanodine by vacuum filtration of the sample through nitrocellulose filters (0.45 μm), followed by two washes with 4 ml ice-cold buffer containing 0.2 M NaCl, 10 mM MOPS (pH 7.4) and 50 μM CaCl2. The retained radioactivity in the dried filters was determined by liquid scintillation counting. Specific binding of [^3H]ryanodine was defined as the difference between the binding in the presence of 20 nM [^3H]ryanodine and in the presence of 20 μM unlabeled ryanodine.
as §2

T1 sequence (P11716 whole entry): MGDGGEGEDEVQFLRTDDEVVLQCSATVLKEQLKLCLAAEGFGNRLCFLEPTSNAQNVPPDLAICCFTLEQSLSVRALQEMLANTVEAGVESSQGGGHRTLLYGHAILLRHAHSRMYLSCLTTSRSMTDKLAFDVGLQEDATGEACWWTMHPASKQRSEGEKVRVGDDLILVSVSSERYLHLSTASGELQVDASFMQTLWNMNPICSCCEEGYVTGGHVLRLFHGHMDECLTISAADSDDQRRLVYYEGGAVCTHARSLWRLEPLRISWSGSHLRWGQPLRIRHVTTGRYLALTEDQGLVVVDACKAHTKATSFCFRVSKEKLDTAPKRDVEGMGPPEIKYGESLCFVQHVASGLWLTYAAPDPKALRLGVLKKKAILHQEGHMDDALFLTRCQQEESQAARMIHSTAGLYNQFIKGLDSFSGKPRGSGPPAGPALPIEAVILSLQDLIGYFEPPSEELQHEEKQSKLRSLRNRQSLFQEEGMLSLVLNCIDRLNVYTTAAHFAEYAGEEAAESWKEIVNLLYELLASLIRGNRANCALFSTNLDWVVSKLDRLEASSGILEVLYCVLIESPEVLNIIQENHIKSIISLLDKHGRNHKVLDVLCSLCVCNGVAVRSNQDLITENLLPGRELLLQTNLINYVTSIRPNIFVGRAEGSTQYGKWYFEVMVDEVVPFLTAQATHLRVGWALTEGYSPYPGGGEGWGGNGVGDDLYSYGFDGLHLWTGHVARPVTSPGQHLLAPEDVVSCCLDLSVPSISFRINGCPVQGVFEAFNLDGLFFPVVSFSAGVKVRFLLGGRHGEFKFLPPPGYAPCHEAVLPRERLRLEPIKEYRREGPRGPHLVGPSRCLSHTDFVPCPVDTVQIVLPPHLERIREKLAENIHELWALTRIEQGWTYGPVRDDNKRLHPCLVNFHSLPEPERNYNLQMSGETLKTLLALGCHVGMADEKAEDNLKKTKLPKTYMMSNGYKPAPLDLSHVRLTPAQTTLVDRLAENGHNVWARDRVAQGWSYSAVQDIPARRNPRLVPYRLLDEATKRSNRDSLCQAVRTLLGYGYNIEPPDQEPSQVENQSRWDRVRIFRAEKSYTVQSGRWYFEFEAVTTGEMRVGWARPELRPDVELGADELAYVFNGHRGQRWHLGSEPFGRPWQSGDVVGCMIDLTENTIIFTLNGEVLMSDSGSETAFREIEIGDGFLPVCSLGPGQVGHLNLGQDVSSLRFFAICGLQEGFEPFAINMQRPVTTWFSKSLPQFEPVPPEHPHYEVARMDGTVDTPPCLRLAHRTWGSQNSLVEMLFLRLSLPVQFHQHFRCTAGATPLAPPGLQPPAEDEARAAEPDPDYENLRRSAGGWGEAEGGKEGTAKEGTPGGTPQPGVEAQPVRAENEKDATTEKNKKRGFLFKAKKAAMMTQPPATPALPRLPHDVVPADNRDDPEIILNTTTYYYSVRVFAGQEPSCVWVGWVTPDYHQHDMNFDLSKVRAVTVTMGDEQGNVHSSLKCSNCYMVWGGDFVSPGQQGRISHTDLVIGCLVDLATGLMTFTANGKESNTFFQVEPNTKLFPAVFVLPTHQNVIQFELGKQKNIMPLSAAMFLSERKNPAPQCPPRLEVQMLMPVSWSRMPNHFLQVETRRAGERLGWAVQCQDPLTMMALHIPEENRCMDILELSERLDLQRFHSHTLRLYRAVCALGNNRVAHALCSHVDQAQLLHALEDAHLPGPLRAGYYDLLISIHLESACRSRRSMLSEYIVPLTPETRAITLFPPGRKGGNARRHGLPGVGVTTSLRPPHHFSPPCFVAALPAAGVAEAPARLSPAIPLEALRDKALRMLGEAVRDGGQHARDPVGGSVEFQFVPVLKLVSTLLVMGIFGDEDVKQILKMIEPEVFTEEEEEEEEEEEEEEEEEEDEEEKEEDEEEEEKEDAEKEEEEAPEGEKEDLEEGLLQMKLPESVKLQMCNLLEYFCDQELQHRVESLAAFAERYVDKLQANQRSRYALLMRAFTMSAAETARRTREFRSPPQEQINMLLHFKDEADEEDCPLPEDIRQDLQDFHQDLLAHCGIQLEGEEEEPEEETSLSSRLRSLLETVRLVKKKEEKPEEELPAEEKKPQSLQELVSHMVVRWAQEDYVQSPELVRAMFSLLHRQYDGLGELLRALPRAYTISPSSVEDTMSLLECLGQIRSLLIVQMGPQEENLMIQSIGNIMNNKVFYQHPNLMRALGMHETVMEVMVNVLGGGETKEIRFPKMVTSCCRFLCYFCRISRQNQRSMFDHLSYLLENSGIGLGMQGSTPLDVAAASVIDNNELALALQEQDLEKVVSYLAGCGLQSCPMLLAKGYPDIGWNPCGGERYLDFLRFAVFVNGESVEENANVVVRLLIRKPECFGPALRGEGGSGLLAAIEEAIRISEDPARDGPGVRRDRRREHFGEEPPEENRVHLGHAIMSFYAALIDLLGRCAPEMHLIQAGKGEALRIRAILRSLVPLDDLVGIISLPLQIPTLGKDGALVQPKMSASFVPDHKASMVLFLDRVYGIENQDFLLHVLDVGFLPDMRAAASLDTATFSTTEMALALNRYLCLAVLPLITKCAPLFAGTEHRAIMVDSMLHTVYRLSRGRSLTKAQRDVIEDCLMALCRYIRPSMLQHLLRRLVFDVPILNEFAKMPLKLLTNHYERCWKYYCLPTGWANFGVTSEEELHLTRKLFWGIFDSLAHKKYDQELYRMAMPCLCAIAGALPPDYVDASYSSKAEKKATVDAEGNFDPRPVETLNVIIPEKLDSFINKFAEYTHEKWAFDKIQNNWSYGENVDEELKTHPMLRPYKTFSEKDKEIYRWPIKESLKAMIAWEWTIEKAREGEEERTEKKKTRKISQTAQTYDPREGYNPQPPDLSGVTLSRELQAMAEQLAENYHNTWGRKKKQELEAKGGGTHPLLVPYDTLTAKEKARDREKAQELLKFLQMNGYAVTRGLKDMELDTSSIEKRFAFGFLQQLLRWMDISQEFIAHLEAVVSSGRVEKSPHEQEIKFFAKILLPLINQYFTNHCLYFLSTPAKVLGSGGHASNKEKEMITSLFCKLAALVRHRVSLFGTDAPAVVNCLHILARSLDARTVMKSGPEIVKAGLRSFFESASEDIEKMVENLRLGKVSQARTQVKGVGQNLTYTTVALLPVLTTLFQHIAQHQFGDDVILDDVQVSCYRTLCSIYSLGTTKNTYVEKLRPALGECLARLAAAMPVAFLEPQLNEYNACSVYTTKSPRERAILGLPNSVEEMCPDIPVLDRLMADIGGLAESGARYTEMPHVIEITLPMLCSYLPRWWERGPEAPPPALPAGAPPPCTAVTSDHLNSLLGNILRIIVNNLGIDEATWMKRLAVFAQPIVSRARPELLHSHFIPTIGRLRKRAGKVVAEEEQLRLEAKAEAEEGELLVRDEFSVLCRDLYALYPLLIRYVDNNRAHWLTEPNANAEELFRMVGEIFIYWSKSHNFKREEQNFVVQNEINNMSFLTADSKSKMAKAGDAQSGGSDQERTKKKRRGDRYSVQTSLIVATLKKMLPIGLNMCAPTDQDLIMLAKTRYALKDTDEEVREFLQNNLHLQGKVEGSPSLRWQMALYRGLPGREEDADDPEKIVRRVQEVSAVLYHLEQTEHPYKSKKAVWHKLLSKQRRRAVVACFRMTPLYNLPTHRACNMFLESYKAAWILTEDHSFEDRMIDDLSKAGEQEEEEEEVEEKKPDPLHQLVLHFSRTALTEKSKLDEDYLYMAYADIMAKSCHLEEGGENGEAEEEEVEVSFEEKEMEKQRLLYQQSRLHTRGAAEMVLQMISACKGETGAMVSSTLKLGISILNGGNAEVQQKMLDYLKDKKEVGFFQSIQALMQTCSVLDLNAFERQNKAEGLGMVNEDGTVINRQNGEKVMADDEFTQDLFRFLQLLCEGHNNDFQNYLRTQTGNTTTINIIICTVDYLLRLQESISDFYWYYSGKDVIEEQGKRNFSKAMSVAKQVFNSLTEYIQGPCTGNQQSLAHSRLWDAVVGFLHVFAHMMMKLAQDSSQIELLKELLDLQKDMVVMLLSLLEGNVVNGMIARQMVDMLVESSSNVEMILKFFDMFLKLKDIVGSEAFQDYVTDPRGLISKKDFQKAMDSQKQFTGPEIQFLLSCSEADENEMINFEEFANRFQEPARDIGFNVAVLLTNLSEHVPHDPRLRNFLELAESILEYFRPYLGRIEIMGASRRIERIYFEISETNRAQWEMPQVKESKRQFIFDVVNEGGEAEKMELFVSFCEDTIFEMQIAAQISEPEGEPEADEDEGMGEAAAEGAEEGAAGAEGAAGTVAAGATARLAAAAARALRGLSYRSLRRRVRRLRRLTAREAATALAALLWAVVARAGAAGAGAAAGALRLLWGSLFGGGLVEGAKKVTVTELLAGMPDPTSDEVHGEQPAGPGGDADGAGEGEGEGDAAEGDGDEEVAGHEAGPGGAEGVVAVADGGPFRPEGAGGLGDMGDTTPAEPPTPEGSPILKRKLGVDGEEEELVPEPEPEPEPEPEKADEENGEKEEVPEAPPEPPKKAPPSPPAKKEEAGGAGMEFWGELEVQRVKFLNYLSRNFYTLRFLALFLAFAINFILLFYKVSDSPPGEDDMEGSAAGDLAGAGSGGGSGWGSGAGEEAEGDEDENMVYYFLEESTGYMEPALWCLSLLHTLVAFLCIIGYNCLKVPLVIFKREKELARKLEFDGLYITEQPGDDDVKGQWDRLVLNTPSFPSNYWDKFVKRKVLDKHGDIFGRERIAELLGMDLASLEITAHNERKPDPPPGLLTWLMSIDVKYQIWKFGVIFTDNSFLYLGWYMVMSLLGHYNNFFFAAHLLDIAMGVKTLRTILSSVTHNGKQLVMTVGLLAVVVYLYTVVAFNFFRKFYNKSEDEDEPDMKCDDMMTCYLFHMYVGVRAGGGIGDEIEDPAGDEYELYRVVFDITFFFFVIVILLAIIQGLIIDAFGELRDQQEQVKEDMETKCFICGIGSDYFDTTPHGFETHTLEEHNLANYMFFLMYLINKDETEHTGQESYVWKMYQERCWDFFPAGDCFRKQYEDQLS

In the case of `Cl.Cl.Cl.Cl.Cl.Cl.N.N.N.N.N.N.N.N.N.N.N.N.N.N.[O-2].[O-2].[Ru+3].[Ru+3].[Ru+4]` [RuR, ruthenium red, reference compound], the IC50 [1] is reported as 0.16 ± 0.03 µM and the IC50 [2] is reported as 7.2 ± 0.55 µM.
